Patent US10738056B2 (Aduro BioTech, Inc., priority 2017, dated 2020)
pIC50: −log10 of the molar value. Like-named read-outs stand apart in the source and are kept apart here.

How the values were obtained:
[1] = biological target: Human cGAS amino acids 155-522 (Homo sapiens (Human), UniProt Q8N884); assay: cGAS biochemical activity assay (ATP remaining, Kinase-Glo Max luminescence); details: human cGAS 155-522, ATP remaining (Kinase-Glo Max); read-out: cGAS IC50
[2] = test system: cGAS/STING pathway in THP1 cells; assay: THP1 cell-based cGAS/STING pathway activity assay (IRF-3-linked luciferase reporter)
Source text: A cellular assay can be used to assess the compounds of the invention for their ability to inhibit the cGAS/STING pathway. Cells that express a luciferase-based reporter that is linked to IRF-3 activation are used to determine response as a function of compound concentration. Such an assay is described in Vincent et al., Nature Communications 2017, 8(1):750, doi: 10.1038/s41467-017-00833-9.
A cellular assay can be used to assess the compounds of the invention for their ability to inhibit the cGAS/STING pathway. Cells that express a luciferase-based reporter that is linked to IRF-3 activation are used to determine response as a function of compound concentration. Such an assay is described in Vincent et al., Nature Communications 2017, 8(1):750, doi: 10.1038/s41467-017-00833-9. Compounds of the invention were assessed using similar assay methods in a THP1 cell assay to generate IC50 values as provided in the following Table 16. In this table, activity level “A” indicates an IC50 value less than 20 μM, “B” indicates an IC50 value between 20 and 100 μM, and “C” indicates an IC50 value above the upper limit of the assay (100 μM), or where an IC50 value could not be generated from the data.

Human cGAS amino acids 155-522, sequence (Q8N884 157-522): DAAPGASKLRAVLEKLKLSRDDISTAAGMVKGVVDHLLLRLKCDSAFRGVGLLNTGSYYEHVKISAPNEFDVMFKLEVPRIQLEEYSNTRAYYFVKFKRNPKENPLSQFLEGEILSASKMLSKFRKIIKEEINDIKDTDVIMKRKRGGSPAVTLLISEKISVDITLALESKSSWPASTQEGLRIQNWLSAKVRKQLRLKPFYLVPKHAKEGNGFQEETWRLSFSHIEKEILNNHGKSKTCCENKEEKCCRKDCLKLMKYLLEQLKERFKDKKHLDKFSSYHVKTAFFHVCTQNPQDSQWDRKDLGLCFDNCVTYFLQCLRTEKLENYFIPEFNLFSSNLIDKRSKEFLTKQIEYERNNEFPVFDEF

SMILES | pIC50 [1] | pIC50 ([2]; Homo sapiens, THP-1) | pIC50 ([2]; read-out: THP-1 IC50)
Cc1cc(NC(=O)c2c(C)[nH]c3c(-c4ccccc4)c(C(F)(F)F)nn3c2=O)n(C)n1 [Compound A1073, N-(1,3-dimethyl-1H-pyrazol-5-yl)-5-methyl-7-oxo-3-phenyl-2-(trifluoromethyl)-4,7-dihydropyrazolo[1,5-a]pyrimidine-6-carboxamide] | 3.60 to 4.70 | < 4.00 | –
CCCS(=O)(=O)NC(=O)c1c(C)[nH]c2c(-c3ccccc3)c(C(F)(F)F)nn2c1=O [Compound A1111, 5-methyl-7-oxo-3-phenyl-N-(propylsulfonyl)-2-(trifluoromethyl)-4,7-dihydropyrazolo[1,5-a]pyrimidine-6-carboxamide] | > 4.70 | < 4.00 | –
Cc1[nH]c2c(-c3ccccc3)c(C(F)(F)F)nn2c(=O)c1C(=O)NCc1ccccc1 [Compound A1023, N-benzyl-5-methyl-7-oxo-3-phenyl-2-(trifluoromethyl)-4,7-dihydropyrazolo[1,5-a]pyrimidine-6-carboxamide] | 3.60 to 4.70 | 4.00 to 4.70 | –
Cc1[nH]c2c(-c3ccccc3)c(C(F)(F)F)nn2c(=O)c1-c1ncc(C2CCCC2)o1 [Compound C1010, 6-(5-cyclopentyloxazol-2-yl)-5-methyl-3-phenyl-2-(trifluoromethyl)pyrazolo[1,5-a]pyrimidin-7(4H)-one] | < 3.60 | > 4.70 | –
Cc1[nH]c2c(-c3ccccc3)c(C(F)(F)F)nn2c(=O)c1-c1nc2c(o1)CCCC2 [Compound C1015, 5-methyl-3-phenyl-6-(4,5,6,7-tetrahydrobenzo[d]oxazol-2-yl)-2-(trifluoromethyl)pyrazolo[1,5-a]pyrimidin-7(4H)-one] | < 3.60 | > 4.70 | –
Cc1[nH]c2c(-c3ccccc3)c(C(F)(F)F)nn2c(=O)c1C(=O)Nc1cccc(C#N)c1 [Compound A1070, N-(3-cyanophenyl)-5-methyl-7-oxo-3-phenyl-2-(trifluoromethyl)-4,7-dihydropyrazolo[1,5-a]pyrimidine-6-carboxamide] | > 4.70 | > 4.70 | –
COc1cccc2c(=O)[nH]c(-c3c(C)[nH]c4c(-c5ccccc5)c(C(F)(F)F)nn4c3=O)nc12 [Compound C1025, 8-methoxy-2-(5-methyl-7-oxo-3-phenyl-2-(trifluoromethyl)-4,7-dihydropyrazolo[1,5-a]pyrimidin-6-yl)quinazolin-4(3H)-one] | > 4.70 | < 4.00 | –
Cc1[nH]c2c(-c3ccccc3)c(C(F)(F)F)nn2c(=O)c1C(=O)Nc1cccc2c1CCO2 [Compound A1102, N-(2,3-dihydrobenzofuran-4-yl)-5-methyl-7-oxo-3-phenyl-2-(trifluoromethyl)-4,7-dihydropyrazolo[1,5-a]pyrimidine-6-carboxamide] | > 4.70 | < 4.00 | –
Cc1[nH]c2c(-c3ccccc3)c(C(F)(F)F)nn2c(=O)c1-c1nc2c([nH]1)CCCC2 [Compound C1017, 5-methyl-3-phenyl-6-(4,5,6,7-tetrahydro-1H-benzo[d]imidazol-2-yl)-2-(trifluoromethyl)pyrazolo[1,5-a]pyrimidin-7(4H)-one] | > 4.70 | 4.00 to 4.70 | –
Cc1[nH]c2c(-c3ccccc3)c(C(F)(F)F)nn2c(=O)c1-c1nc2c(o1)CCCC2O (stereo not drawn) [Compound C1052, 6-(4-hydroxy-4,5,6,7-tetrahydrobenzo[d]oxazol-2-yl)-5-methyl-3-phenyl-2-(trifluoromethyl)pyrazolo[1,5-a]pyrimidin-7(4H)-one] | > 4.70 | 4.00 to 4.70 | –
COc1cnccc1NC(=O)c1c(C)[nH]c2c(-c3ccccc3)c(C(F)(F)F)nn2c1=O [Compound A1099, N-(3-methoxypyridin-4-yl)-5-methyl-7-oxo-3-phenyl-2-(trifluoromethyl)-4,7-dihydropyrazolo[1,5-a]pyrimidine-6-carboxamide] | 3.60 to 4.70 | < 4.00 | –

Continued, values first:

pIC50 [1] | pIC50 ([2]; Homo sapiens, THP-1) | pIC50 ([2]; read-out: THP-1 IC50) | SMILES
> 4.70 | < 4.00 | – | COCc1coc(-c2c(C)[nH]c3c(-c4ccccc4)c(C(F)(F)F)nn3c2=O)n1 [Compound C1108, 6-(4-(methoxymethyl)oxazol-2-yl)-5-methyl-3-phenyl-2-(trifluoromethyl)pyrazolo[1,5-a]pyrimidin-7(4H)-one]
> 4.70 | – | < 4.00 | CO[C@@H]1CCCC1c1nnc(-c2c(C)[nH]c3c(-c4ccccc4)c(C(F)(F)F)nn3c2=O)o1 (stereo partly drawn) [D1049 Iso-2]
> 4.70 | < 4.00 | – | Cc1[nH]c2c(-c3ccccc3)c(C(F)(F)F)nn2c(=O)c1-c1nnc(N2CCCCC2)o1 [Compound D1020, 5-methyl-3-phenyl-6-(5-(piperidin-1-yl)-1,3,4-oxadiazol-2-yl)-2-(trifluoromethyl)pyrazolo[1,5-a]pyrimidin-7(4H)-one]
> 4.70 | 4.00 to 4.70 | – | Cc1[nH]c2c(-c3ccccc3)c(C(F)(F)F)nn2c(=O)c1-c1nnc([C@H]2CCCOC2)o1 [Compound D1025, (S)-5-methyl-3-phenyl-6-(5-(tetrahydro-2H-pyran-3-yl)-1,3,4-oxadiazol-2-yl)-2-(trifluoromethyl)pyrazolo[1,5-a]pyrimidin-7(4H)-one]
> 4.70 | > 4.70 | – | COc1cccc2oc(-c3c(C(=O)NCCO)[nH]c4c(-c5ccccc5)c(C(F)(F)F)nn4c3=O)nc12 [Compound C1178, N-(2-hydroxyethyl)-6-(4-methoxybenzo[d]oxazol-2-yl)-7-oxo-3-phenyl-2-(trifluoromethyl)-4,7-dihydropyrazolo[1,5-a]pyrimidine-5-carboxamide]
< 3.60 | > 4.70 | – | COc1cccc2oc(-c3c[nH]c4c(-c5ccccc5)c(C(F)(F)F)nn4c3=O)nc12 [Compound C1079, 6-(4-methoxybenzo[d]oxazol-2-yl)-3-phenyl-2-(trifluoromethyl)pyrazolo[1,5-a]pyrimidin-7(4H)-one]
> 4.70 | < 4.00 | – | Cc1[nH]c2c(-c3ccccc3)c(C(F)(F)F)nn2c(=O)c1-c1nnc(N2CCCCC2CN)o1 (stereo not drawn) [Compound D1070, 6-(5-(2-(aminomethyl)piperidin-1-yl)-1,3,4-oxadiazol-2-yl)-5-methyl-3-phenyl-2-(trifluoromethyl)pyrazolo[1,5-a]pyrimidin-7(4H)-one]
> 4.70 | 4.00 to 4.70 | – | COc1cccc2oc(-c3c(-c4conc4C)[nH]c4c(-c5ccccc5)c(C(F)(F)F)nn4c3=O)nc12 [Compound C1253, 6-(4-methoxybenzo[d]oxazol-2-yl)-5-(3-methylisoxazol-4-yl)-3-phenyl-2-(trifluoromethyl)pyrazolo[1,5-a]pyrimidin-7(4H)-one]
3.60 to 4.70 | < 4.00 | – | Cc1[nH]c2c(-c3ccccc3)c(C(F)(F)F)nn2c(=O)c1-c1nnc(C2(C)CCCOC2)o1 (stereo not drawn) [Compound D1051, 5-methyl-6-(5-(3-methyltetrahydro-2H-pyran-3-yl)-1,3,4-oxadiazol-2-yl)-3-phenyl-2-(trifluoromethyl)pyrazolo[1,5-a]pyrimidin-7(4H)-one]
> 4.70 | < 4.00 | – | Cc1[nH]c2c(-c3ccccc3)c(C(F)(F)F)nn2c(=O)c1-c1nnc(C2COCCN2S(C)(=O)=O)o1 (stereo not drawn) [Compound D1047, 5-methyl-6-(5-(4-(methylsulfonyl)morpholin-3-yl)-1,3,4-oxadiazol-2-yl)-3-phenyl-2-(trifluoromethyl)pyrazolo[1,5-a]pyrimidin-7(4H)-one]
> 4.70 | < 4.00 | – | COc1cncc2oc(-c3c(C)[nH]c4c(-c5ccccc5)c(C(F)(F)F)nn4c3=O)nc12 [Compound C1096, 6-(7-methoxyoxazolo[5,4-c]pyridin-2-yl)-5-methyl-3-phenyl-2-(trifluoromethyl)pyrazolo[1,5-a]pyrimidin-7(4H)-one]
> 4.70 | < 4.00 | – | COc1c(Cl)ccc2oc(-c3c(C)[nH]c4c(-c5ccccc5)c(C(F)(F)F)nn4c3=O)nc12 [Compound C1095, 6-(5-chloro-4-methoxybenzo[d]oxazol-2-yl)-5-methyl-3-phenyl-2-(trifluoromethyl)pyrazolo[1,5-a]pyrimidin-7(4H)-one]
> 4.70 | 4.00 to 4.70 | – | Cc1[nH]c2c(-c3ccccc3)c(C(F)(F)F)nn2c(=O)c1C1=N[C@@H](C(=O)O)[C@H](C)O1 [Compound C1213, (4R,5S)-5-methyl-2-(5-methyl-7-oxo-3-phenyl-2-(trifluoromethyl)-4,7-dihydropyrazolo[1,5-a]pyrimidin-6-yl)-4,5-dihydrooxazole-4-carboxylic acid]
3.60 to 4.70 | < 4.00 | – | Cc1[nH]c2c(-c3ccccc3)c(C(F)(F)F)nn2c(=O)c1-c1nnc(C2COCCN2)o1 (stereo not drawn) [Compound D1042, 5-methyl-6-(5-(morpholin-3-yl)-1,3,4-oxadiazol-2-yl)-3-phenyl-2-(trifluoromethyl)pyrazolo[1,5-a]pyrimidin-7(4H)-one]
> 4.70 | < 4.00 | – | CNc1cccc2oc(-c3c(C)[nH]c4c(-c5ccccc5)c(C#N)nn4c3=O)nc12 [Compound C1274, 5-methyl-6-(4-(methylamino)benzo[d]oxazol-2-yl)-7-oxo-3-phenyl-4,7-dihydropyrazolo[1,5-a]pyrimidine-2-carbonitrile]
> 4.70 | < 4.00 | – | COc1cc(CN)cc2oc(-c3c(C)[nH]c4c(-c5ccccc5)c(C(F)(F)F)nn4c3=O)nc12 [Compound C1135, 6-(6-(aminomethyl)-4-methoxybenzo[d]oxazol-2-yl)-5-methyl-3-phenyl-2-(trifluoromethyl)pyrazolo[1,5-a]pyrimidin-7(4H)-one]
